Results as given in patent US8784887B2, “Pharmaceutical preparation of N-[5-(aminosulfonyl)-4-methyl-1,3-thiazol-2-yl]-N-methyl-2-[4-(2-pyridinyl)phenyl]acetamide” (Aicuris GmbH & Co. KG, priority 2005, dated 2014).

Experiment: release experiments with pure active compound (I) and with state-of-the-art preparations
Format: physicochemical
Details: release experiments using pure active compound (I)
Description: If those preparations known from the state of the art are applied to the active compound (I) described here, it has unexpectedly been shown that there is no immediate release of the active compound but that there is a markedly delayed release which is therapeutically not desired.

Cc1nc(N(C)C(=O)Cc2ccc(-c3ccccn3)cc2)sc1S(N)(=O)=O [active compound (I), N-[5-(Aminosulfonyl)-4-methyl-1,3-thiazol-2-yl]-N-methyl-2-[4-(2-pyridinyl)phenyl]acetamide]
release behavior of pure active compound (in words): “clumping” or a gel formation
